# Laboratory results from US10005767B2, “Compositions and methods for inhibition of the JAK pathway” (Rigel Pharmaceuticals, Inc., priority 2009, dated 2018).
# Test system: human primary T-cells, IL-2 stimulated proliferation (JAK-1 and JAK-3 dependent; reported as JAK3 activity)
# Test: Human primary T-cell proliferation stimulated by IL-2 (Example 3)
# Format: cell-based
# Conditions: Homo sapiens, T-cell, tested under conditions described in Example 3 (IL-2 stimulated human primary T-cell proliferation); read-out: ability to inhibit JAK3 activity, IC50 range (Table V)
# Procedure, shortened: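 Peripheral-blood human T-cells pre-activated via TCR/CD28, IL-2-starved overnight, then cultured 72 h at 37 °C with compound in Yssel's medium containing IL-2 (80 U/mL in cell suspension). Proliferation read as viable-cell ATP by CellTiter-Glo luminescence; reduction versus control taken as JAK pathway inhibition.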
row,Structure (SMILES),IC50
1,"Cc1cnc(Nc2ccc(NCC3CC3)nc2)nc1Nc1ccc2oc(=O)[nH]c2c1 [II-74, 5-(2-(6-(cyclopropylmethylamino)pyridin-3-ylamino)-5-methylpyrimidin-4-ylamino)benzo[d]oxazol-2(3H)-one]",< 500 nM
2,"Cc1cnc(Nc2cc(C(C)N3CCC3)cc(C(F)(F)F)c2)nc1Nc1ccc2oc(=O)[nH]c2c1 (centres unmarked) [Compound I-464, 5-(2-(3-(1-(azetidin-1-yl)ethyl)-5-(trifluoromethyl)phenylamino)-5-methylpyrimidin-4-ylamino)benzo[d]oxazol-2(3H)-one]",< 500 nM
3,"Cc1cnc(Nc2ccc(C(=O)N3CCCC3)cc2)nc1Nc1ccc2oc(=O)[nH]c2c1 [Compound I-247, 5-(5-methyl-2-(4-(pyrrolidine-1-carbonyl)phenylamino)pyrimidin-4-ylamino)benzo[d]oxazol-2(3H)-one]",< 500 nM
4,"N#Cc1ccc(Nc2ncc(F)c(Nc3ccc4oc(=O)[nH]c4c3)n2)cc1 [Compound I-45, N4-(benzo[d]oxazol-2(3H)-on-5-yl)-N2-(4-cyanophenyl)-5-fluoropyrimidine-2,4-diamine]",< 500 nM
5,"CCOc1cc(Nc2ncc(C)c(Nc3ccc4oc(=O)[nH]c4c3)n2)ccc1Cl [Compound I-182, 5-[2-(4-Chloro-3-ethoxy-phenylamino)-5-methyl-pyrimidin-4-ylamino]-3H-benzooxazol-2-one]",< 500 nM
6,"CCCN1Cc2ccc(Nc3ncc(C)c(Nc4ccc5oc(=O)[nH]c5c4)n3)cc2C1 [III-6, N4-(benzo[d]oxazol-2(3H)-on-5-yl)-N2-(2-n-propylisoindolin-5-yl)-5-methylpyrimidine-2,4-diamine]",< 500 nM
7,"COc1ccc(Nc2ncc(C)c(Nc3cc(F)c4oc(=O)[nH]c4c3)n2)cc1C [Compound I-431, 7-fluoro-5-(2-(4-methoxy-3-methylphenylamino)-5-methylpyrimidin-4-ylamino)benzo[d]oxazol-2(3H)-one]",< 500 nM
8,"Cc1cnc(Nc2ccc3c(c2)CN(O)C3)nc1Nc1ccc2oc(=O)[nH]c2c1 [III-2, N4-(benzo[d]oxazol-2(3H)-on-5-yl)-N2-(2-hydroxyisoindolin-5-yl)-5-methylpyrimidine-2,4-diamine]",< 500 nM

# Same assay, conditions: tested under conditions described in Example 3 (IL-2 stimulated human primary T-cell proliferation); read-out: ability to inhibit JAK3 activity, IC50 range (Table V)
row,Structure (SMILES),IC50
1,"CCCn1c(=O)oc2ccc(Nc3nc(Nc4cccc(S(C)(=O)=O)c4)ncc3C)cc21 [Compound I-7, N4-(3-n-propylbenzo[d]oxazol-2(3H)-on-5-yl)-N2-((3-methylsulfonyl)phenyl)-5-methylpyrimidine-2,4-diamine]",< 500 nM
2,"Cc1cnc(Nc2cc(C(N)=O)cc(C(F)(F)F)c2)nc1Nc1ccc2oc(=O)[nH]c2c1 [Compound I-370, N2-(3-carboxamide-5-trifluoromethyl)phenyl-5-methyl-N4-(2-oxo-2,3-dihydro-1,3-benzoxazol-5-yl)-2,4-pyrimidinediamine]",< 500 nM
3,"Cc1cnc(Nc2cccc(S(C)(=O)=O)c2)nc1Nc1ccc2c(c1)n(C)c(=O)n2C [Compound I-36, N4-(1,3-dimethylbenzimidazolin-2-on-5-yl)-N2-((3-methylsulfonyl)phenyl)-5-methylpyrimidine-2,4-diamine]",< 500 nM
4,"Cc1cc(Nc2ncc(C)c(Nc3ccc4oc(=O)[nH]c4c3)n2)cc(OC(F)F)c1 [Compound I-516, N2-(3-difluoromethoxy-5-methyl)phenyl-5-methyl-N4-(2-oxo-2,3-dihydro-1,3-benzoxazol-5-yl)-2,4-pyrimidinediamine]",< 500 nM
5,"Cc1cnc(Nc2cccc(OC(F)F)c2)nc1Nc1ccc2oc(=O)[nH]c2c1 [Compound I-312, N2-(3-difluoromethoxy)phenyl-5-methyl-N4-(2-oxo-2,3-dihydro-1,3-benzoxazol-5-yl)-2,4-pyrimidinediamine]",< 500 nM
6,"Cc1ccc(Nc2ncc(C)c(Nc3ccc4oc(=O)[nH]c4c3)n2)cc1OC(C)(C)C#N [Compound I-397, N2-[3-(1-cyano-1-methyl)ethoxy-4-methyl]phenyl-5-methyl-N4-(2-oxo-2,3-dihydro-1,3-benzoxazol-5-yl)-2,4-pyrimidinediamine]",< 500 nM
